Data as given in publication PMC4604475 (Scientific Reports, 2015).

How the values were obtained:
[1] = Hydrolysis kinetics in aqueous PBS 0.1 M, pH 6.8, 37 °C (intestinal conditions); assay type: physicochemical; conditions: for half-life at 5 μM: 0.1 M PBS buffer, 5 μM compound; for 10^2 * kII, pseudo first-order rate constant, disubstituted to monosubstituted / 10^2 * kIII, pseudo first-order rate constant, trisubstituted to disubstituted: value ± standard error of fit
Source text: (§1) There are two possible isomeric disubstituted intermediates and, likewise, two monosubstituted intermediates. By HPLC-UV and HPLC-MS analyses in most cases we were able to detect and separate all of them. However, to simplify the kinetic analysis of the data we considered each pair of isomeric intermediates, resulting from the first and second hydrolysis steps, as a single species, i.e. the two disubstituted and the two monosubstituted intermediates were handled as species II and I, respectively (Fig. 3). Fitting of the experimental data was then performed considering consecutive pseudo first order reactions and using a set of equations analogous to those described by Kozerski et al.[55]
The stability of all new compounds was tested in aqueous media imitating gastric (0.1 N HCl, NormaFix) and intestinal (0.1 M PBS buffer, pH 6.8) conditions. A 5 μM solution of the compound was prepared from a 5 mM stock solution in DMSO, and incubated at 37 °C for 24 hours; samples withdrawn at different times were analysed by HPLC-UV. Hydrolysis products were identified by HPLC/ESI-MS analysis of selected samples. Non-linear curve fitting was performed using Origin 8.0 data analysis software, using the equations described in[55][61].

[2] = Stability (hydrolysis kinetics) in rat whole blood; assay type: in vitro ADME; conditions: 37 °C; for kIII, pseudo first-order rate constant, trisubstituted to disubstituted: value ± standard error of fit; for half-life at 5 μM: whole blood (heparinised), 5 μM compound
Source text: as §1
Rats were anesthetised and blood was withdrawn from the jugular vein, and transferred into tubes containing heparin. Blood samples (1 mL) were spiked with 5 μM compound (dilution from a 5 mM stock solution in DMSO), and incubated at 37 °C for 4 hours (the maximum period allowed by blood stability). Aliquots were taken after 10 min, 30 min, 1 h, 2 h and 4 h and treated as described below (blood sample treatment and analysis). Cleared blood samples were finally subjected to HPLC-UV analysis.
(§2) Before starting the treatment, 4,4′-dihydroxybiphenyl was added as internal standard to a carefully measured blood volume (25 μM final concentration). 0.1 vol of 0.6 M TEA (pH 8.0) and 4 vol of MeOH were then added to the blood samples, which were then sonicated (2 min) and centrifuged (12,000 g, 7 min, 4 °C). The supernatant was finally collected and stored at −20 °C. Before analysis, MeOH was evaporated off at room temperature using a Univapo 150H (UniEquip) vacuum concentrator centrifuge, and up to 40 μL of ACN were added to precipitate residual proteins. After centrifugation (12,000 g, 5 min, 4 °C), cleared samples were directly subjected to HPLC-UV analysis. Metabolites and hydrolysis products were identified by comparison of chromatographic retention time with true samples or by HPLC/ESI-MS analysis.

[3] = Blood pharmacokinetics after oral (intragastric) administration to rats; assay type: in vivo; conditions: rat, oral 88 μmol/kg
Experimental: Derivatives 2–5 were then tested for their in vivo absorption and metabolism by performing pharmacokinetic studies after oral administration to rats. Each compound was administered as a single intragastric bolus, in an equimolar dose/kg body weight (88 μmol/kg). Blood samples were taken at different time points over a 24 h period, treated and analyzed as described in the Materials and Methods section. Each experiment was replicated at least 3 times.
as §2
Internal standard recovery from the treatment used to extract resveratrol-AA derivatives was 91.8 ± 10.7%. The recovery of 3, expressed as ratio to the recovery of internal standard, was 0.633 ± 0.088. […] Knowledge/assumption of these ratios allowed us to determine the unknown amount of analyte in a blood sample by measuring the recovery of internal standard.
Since sample treatment includes an evaporation/concentration step, LOD and LOQ were determined relatively to the analytical part of the method (HPLC/UV analysis).
Derivatives 2–5 were administered to overnight-fasted male Wistar rats from the facility of the Department of Biomedical Sciences, University of Padova, as a single intragastric dose (88 μmol/Kg, dissolved in 250 μl DMSO). Blood samples were obtained by the tail bleeding technique: before drug administration, rats were anesthetised with isoflurane and the tip of the tail was cut off; blood samples (80–100 μL each) were then taken from the tail tip at different time points after drug administration. Blood was collected in heparinised tubes, kept in ice and treated as described above within 10 min.

[4] = oral administration of an equimolar amount of resveratrol itself; cited from earlier work

Row | Structure (SMILES) | half-life at 5 μM [1] | 10^2 * kII, pseudo first-order rate constant, disubstituted to monosubstituted [1] | 10^2 * kIII, pseudo first-order rate constant, trisubstituted to disubstituted [1] | kIII, pseudo first-order rate constant, trisubstituted to disubstituted [2] | half-life at 5 μM [2] | appearance in blood of resveratrol, products of partial hydrolysis (II and I) or any metabolites [3] | level of disubstituted hydrolysis products (II) in blood [3] | sulfated or glucuronidated species in the bloodstream [3] | concentration of prodrug in blood ([3]; about one hour after administration, remained around this level for several hours) | time of peak blood concentration of resveratrol [4]
1 | CC(C)CC(NC(=O)Oc1ccc(/C=C/c2cc(OC(=O)NC(CC(C)C)C(=O)O)cc(OC(=O)NC(CC(C)C)C(=O)O)c2)cc1)C(=O)O (centres unmarked) [Derivative 2, (E)-2,2′-((((5-(4-(((1-carboxy-3-methylbutyl)carbamoyl)oxy)styryl)-1,3-phenylene)bis(oxy))bis(carbonyl))bis(azanediyl))bis(4-methylpentanoic acid)] | > 24 h | 0.9 ± 0.2 h^−1 | 1.98 ± 0.03 h^−1 | 0.57 ± 0.06 h⁻¹ | 1 h | – | – | – | – | –
2 | O=C(NC(Cc1ccccc1)C(=O)O)Oc1ccc(/C=C/c2cc(OC(=O)NC(Cc3ccccc3)C(=O)O)cc(OC(=O)NC(Cc3ccccc3)C(=O)O)c2)cc1 (centres unmarked) [Derivative 5, (E)-2,2′-((((5-(4-(((1-carboxy-2-phenylethyl)carbamoyl)oxy)styryl)-1,3-phenylene)bis(oxy))bis(carbonyl))bis(azanediyl))bis(3-phenylpropanoic acid)] | 17 h | 1.36 ± 0.04 h^−1 | 4.25 ± 0.02 h^−1 | 1.86 ± 0.06 h⁻¹ | 0.3 h | did not result in the appearance in blood samples of detectable amounts | – | – | – | –
3 | CCC(C)C(NC(=O)Oc1ccc(/C=C/c2cc(OC(=O)NC(C(=O)O)C(C)CC)cc(OC(=O)NC(C(=O)O)C(C)CC)c2)cc1)C(=O)O (centres unmarked) [Derivative 3, (E)-2,2′-((((5-(4-(((1-carboxy-2-methylbutyl)carbamoyl)oxy)styryl)-1,3-phenylene)bis(oxy))bis(carbonyl))bis(azanediyl))bis(3-methylpentanoic acid)] | > 24 h | 0.4 ± 0.4 h^−1 | 2.21 ± 0.02 h^−1 | 0.63 ± 0.04 h⁻¹ | 1 h | – | about as high as that of their precursor | neither sulfated nor glucuronidated species appeared in the bloodstream | higher than 0.5 μM | –
4 | CC(O)C(NC(=O)Oc1ccc(/C=C/c2cc(OC(=O)NC(C(=O)O)C(C)O)cc(OC(=O)NC(C(=O)O)C(C)O)c2)cc1)C(=O)O (centres unmarked) [Derivative 4, (E)-2,2′-((((5-(4-(((1-carboxy-2-hydroxypropyl)carbamoyl)oxy)styryl)-1,3-phenylene)bis(oxy))bis(carbonyl))bis(azanediyl))bis(3-hydroxybutanoic acid)] | 15 h | 1.4 ± 0.1 h^−1 | 5.30 ± 0.08 h^−1 | 3.9 ± 0.2 h⁻¹ | 0.17 h | did not result in the appearance in blood samples of detectable amounts | – | – | – | –
5 | Oc1ccc(/C=C/c2cc(O)cc(O)c2)cc1 [resveratrol, 3,5, 4′-trihydroxy-trans-stilbene] | – | – | – | – | – | – | – | – | – | about 10 minutes
